Results reported in patent US10647680B2, “Urea compound, preparation method therefor and medical use thereof” (Ancureall Pharmaceutical (Shanghai) Co., Ltd., priority 2016, dated 2020).

Legend:
[1] = system: A549 (KRAS G12S mutant type); assay: In vitro growth inhibition (GI50), A549; assay type: cell-based; details: Homo sapiens; A549, KRAS Gl2S
Excerpt: Tumor cell line is an effective cell model for studying the inhibition of tumor cell growth or proliferation in vitro. In the present invention, a representative tumor cell line was selected to determine the cell growth inhibition activity of the present compound. All cell lines used were from ATCC, DSMZ, and the Cell Bank of the Chinese Academy of Sciences. Cell culture conditions and methods were in accordance with the requirements of each cell line. Cells were subcultured in vitro for no more than 3 passages each time, and as required, single-clone purification and identification of cell lines could be carried out.
The cell culture media used were RPMI1640 (Gibco), MEM (Gibco), McCOY'S5A (Gibco), and IMDM (Gibco). The complete medium was prepared by supplement with 5˜20% fetal calf serum (Gibco), 1% double-antibiotics (10000 units/mL penicillin and 10000 units/mL), 2 mM glutamine or 1 mM sodium pyruvate, respectively.
Human large cell lung cancer cell NCI-H460 (KRAS […] mutant type, ATCC), human non-small cell lung cancer cell line H1299 (NRAS Q61K mutant type, ATCC), human melanoma cell line A375 (BRAF V600E mutant type, Shanghai Cell Bank of Chinese Academy of Sciences), human colon cancer cell line HCT116 (KRAS G13D mutant type, Shanghai Cell Bank, Chinese Academy of Sciences) were cultured in a complete medium of 1×RPMI1640 (10% FBS), respectively. Human non-small cell lung cancer cells A549 (KRAS G12S mutant type, Shanghai Cell Bank, Chinese Academy of Sciences) were cultured in a complete medium of 1× Ham's supplemented with 10% FBS, 1% double antibody, and 2 mM glutamine.
Adherent cells were digested with 0.25% pancreatin-EDTA (Gibco). The suspension cells were collected by centrifugation. The supernatant was discarded and the cell pellet was resuspended and counted. Different cell concentrations (5˜10×10^4 cells/mL) were prepared according to the growth cycle of each cell line and then seeded on a 96-well plate (Corning), 100 μL/well. The cells were incubated overnight at 37° C., 5% CO2. The compounds were added to the cells on the second day with 2 wells in parallel. The final concentration of organic solvent shall not exceed 1%. The cells were continually incubated for 3 to 5 days, and then subjected to MTT assay.
The compound of the present invention and the control compound were dissolved in DMSO (Sigma) respectively, with the purity of more than 98%. The compound was stored in a concentration of 10 mM at −20° C. and diluted to 2- or 10-fold series prior to use.
Dojindo CCK8 reagent kit was used as MTT assay. THERMO […] FC meter was used as microplate reader.
For adherent cells, culture medium was removed and immediately replaced with the fresh prepared medium which contains 10% CCK8 reagent (100 μL/well). For the suspension cells, CCK8 was directly added to 10% of the final concentration. The cells were continually incubated for 1˜4 h. When a dark yellow color could be observed in the solvent control wells, the absorbance value at OD450 nm was measured and the cell growth rate was calculated according to the following formula: Cell Growth Rate (%)=100*(T−T0)/(C−T0) T=optical density of drug treatment cell well—optical density of blank control well; T0=optical density of cell well before drug treatment—optical density of blank control well; C=optical density of cell well of solvent control group—optical density of blank control well. The concentration value of 50% inhibition of cell growth (GI50) was calculated according to the drug concentration and cell growth rate curve. The experiment was independently repeated 1˜3 times, and subject to biological statistical analysis. 4. Experimental Results
Tumor cell growth inhibition test was performed by selecting representative compounds (compounds 4, 11, 12, 16, 27, 68, 71, 77, 79, 89 and 116 of the present invention). The initial concentration of the compound was 5,000 nM, then it was serially diluted by 2-fold or 10-fold to 0.01 nM. […]

[2] = system: MOLM-13 (FLT3 ITD+/− mutant type); assay: In vitro growth inhibition (GI50), MOLM-13; assay type: cell-based, human; details: for GI50: Homo sapiens, MOLM-13, Cell lines of leukemia, read-out: GI 50 MOLM-13 FLT3 (ITD+/−); for inhibition activity against the growth of MOLM-13 cells compared with AC220: compared with the control compound AC220
[3] = system: U937 (FLT3 wild-type); assay: In vitro growth inhibition (GI50), U937; assay type: cell-based; details: Homo sapiens, U-937; Cell lines of leukemia; read-out: GI 50 U937 FLT 3(WT)

| Compound | GI50 [1] [nM] | GI50 [2] [nM] | inhibition activity against the growth of MOLM-13 cells compared with AC220 [2] | GI50 [3] [nM] |
| --- | --- | --- | --- | --- |
| CC(C)(C)c1cc(NC(=O)Nc2ccc(-n3cnc4cc(OCCO)ccc43)cc2)no1 [Compound 11, 1-(5-tert-butyl-isoxazol-3-yl)-3-{4-[5-(2-hydroxy-ethoxyl)-benzimidazol-1-yl]-phenyl]-urea] | > 2500 | 0.01 to 0.1 | stronger inhibition activity | > 1000 |
| COc1ccc2c(c1)ncn2-c1ccc(NC(=O)Nc2cc(C(C)(C)C)n[nH]2)cc1 [Compound 71, 1-(5-tert-butyl-2H-pyrazol-3-yl)-3-[4-(5-methoxyl-benzimidazol-1-yl)-phenyl]-urea] | > 2500 | 0.01 to 0.1 | stronger inhibition activity | > 1000 |
| CC(C)(C)c1cc(NC(=O)Nc2ccc(-n3cnc4cc(O)ccc43)cc2)no1 [Compound 4, 1-(5-tert-butyl-isoxazol-3-yl)-3-[4-(5-hydroxy-benzimidazol-1-yl)-phenyl]-urea] | > 2500 | 0.1 to 1 | – | 100 to 1000 |
| COCCOc1ccc2c(c1)ncn2-c1ccc(NC(=O)Nc2cc(C(C)(C)C)n[nH]2)cc1 [Compound 77, 1-(5-tert-butyl-2H-pyrazol-3-yl)-3-{4-[5-(2-methoxyl-ethoxyl)-benzimidazol-1-yl]-phenyl}-urea] | > 2500 | 0.01 to 0.1 | stronger inhibition activity | > 1000 |
| CC(C)(C)c1cc(NC(=O)Nc2ccc(-n3cnc4cc(OCCO)ccc43)cc2)[nH]n1 [Compound 79, 1-(5-tert-butyl-2H-pyrazol-3-yl)-3-{4-[5-(2-hydroxy-ethoxyl)-benzimidazol-1-yl]-phenyl]urea] | > 2500 | 0.1 to 1 | stronger inhibition activity | > 1000 |
| CC(C)(C)c1cc(N)n(C(=O)Nc2ccc(-n3cnc4ccccc43)cc2)n1 [Compound 116, 5-amino-3-tert-butyl-pyrazol-1-carboxylic acid (4-benzimidazol-1-yl-phenyl)-amide] | > 2500 | 10 to 100 | – | > 1000 |
| CC(C)(C)c1cc(NC(=O)Nc2ccc(-n3cnc4ccc(OCCN5CCOCC5)cc43)cc2)no1 [Compound 27, 1-(5-tert-butyl-isoxazol-3-yl)-3-{4-[6-(2morpholin-4-yl-ethoxyl)-benzimidazol-1-yl]-phenyl}-urea] | > 2500 | 0.1 to 1 | – | > 1000 |
| CC(C)(C)c1cc(NC(=O)Nc2ccc(-n3cnc4ccccc43)cc2)[nH]n1 [Compound 68, 1-(4-benzimidazol-1-yl-phenyl)-3-(5-tert-butyl-2H-pyrazol-3-yl)-urea] | > 2500 | 0.1 to 1 | – | > 1000 |
| CC(C)(C)c1cc(NC(=O)Nc2ccc(-n3cnc4cc(OCCN5CCOCC5)ccc43)cc2)no1 [Compound 16, 1-(5-tert-butyl-isoxazol-3-yl)-3-{4-[5-(2-morpholin-4-yl-ethoxyl)-benzimidazol-1-yl]-phenyl}-urea] | > 2500 | 0.1 to 1 | – | > 1000 |
| CC(C)(C)c1cc(NC(=O)Nc2ccc(-n3cnc4cc(OCCN5CCOCC5)ccc43)cc2)[nH]n1 [Compound 89, 1-(5-tert-butyl-2H-pyrazol-3-yl)-3-{4-[5-(2-morpholin-4-yl-ethoxyl)-benzimidazol-1-yl]-phenyl}-urea] | > 2500 | 0.1 to 1 | stronger inhibition activity | > 1000 |
